Data as given in patent US12116343B2, “Inhibitors of APOL1 and methods of using same” (Vertex Pharmaceuticals Incorporated, priority 2020, dated 2024).

Biological target: T1, G1 APOL1 (Homo sapiens, UniProt O14791, I384M/S342G)
T1 construct: expressed in transfected cells
T1 sequence (O14791 28-398 S342G/I384M): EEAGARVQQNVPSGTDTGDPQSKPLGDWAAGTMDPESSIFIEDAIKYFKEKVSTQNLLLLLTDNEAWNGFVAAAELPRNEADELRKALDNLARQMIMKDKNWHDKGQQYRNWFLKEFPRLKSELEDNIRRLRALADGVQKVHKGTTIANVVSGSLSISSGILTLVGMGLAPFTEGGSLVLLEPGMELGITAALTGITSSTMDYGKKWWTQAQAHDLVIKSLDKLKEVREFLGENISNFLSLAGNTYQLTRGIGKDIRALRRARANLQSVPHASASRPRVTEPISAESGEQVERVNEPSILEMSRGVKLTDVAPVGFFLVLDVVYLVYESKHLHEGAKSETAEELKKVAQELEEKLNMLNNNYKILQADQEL
Test: Acute APOL1 Thallium Assay with inducible stable clones of HEK 293 cells
Type: cell-based
Details: HEK 293 T-Rex cells expressing G1 APOL1; read-out: Thallium Assay (IC50)
From the text: Acute APOL1 Thallium Assay with Inducible Stable Clones of HEK 293 Cells
Apolipoprotein L1 (APOL1) proteins form potassium-permeable cation pores in the plasma membrane. APOL1 risk variants (G1 and G2) induce greater potassium flux than G0 in HEK293 cells. This assay exploits the permeability of thallium (Tl+) through ligand-gated potassium channels. The dye produces a bright fluorescent signal upon binding to Tl+ conducted through potassium channels. The intensity of the Tl+ signal is proportional to the number of potassium channels in the open state. Therefore, it provides a functional indication of the potassium channel activities. During the initial dye-loading step, the Tl+ indicator dye as an acetoxymethyl (AM) ester enters the cells through passive diffusion. Cytoplasm esterases cleave the AM ester and relieve its active thallium-sensitive form. The cells are then stimulated with Tl+. The increase of fluorescence in the assay represents the influx of Tl+ into the cell specifically through the potassium channel (i.e. through APOL1 pores), providing a functional measurement of potassium channel/pore activity. The Thallium assay is conducted with cells expressing G1 APOL1.
APOL1 Cell Line (HEK T-Rex Stable Inducible Cell Line) • HEK T-Rex System • Tetracycline (Tet) inducible mammalian expression system. • Stably express the Tet repressor to regulate transcription. • Expression under the full-length CMV promoter. • APOL1 stable inducible cell line Clone used: G1 DC3.25
Tissue Culture Media • Cell Culture Medium • DMEM+10% FBS+P/S+5 μg/mL blasticidin+1 μg/mL puromycin. • 500 mL DMEM+55 mL FBS+5 mL P/S+280 μL blasticidin S HCl (10 mg/mL)+56 μL puromycin (10 mg/mL). • Cell Assay Medium • DMEM with 2% FBS+pen strep.
Instruments and Equipment • Nuaire cell culture hood, Cat. No. 540-600 • 37° C./5% CO2 incubator link to robotic arm, Liconic: STX110 • Molecular Devices FLIPR^Tetra High throughput cellular screening system, Cat. No. FT0324, Molecular Devices • ThermoFisher MultiDrop 384, Cat. No. 5840300 • Biotek Microfill, Cat. No. ASF1000A-4145 • BioRad TC10 cell counter, Cat. No. 145-0010 Assay Procedures
Cells Scaled Up from Frozen Vials • APOL1 G1 3.25 (HEK293 T-Rex) frozen vials: 5 million cells per vial • Step 1, Day 1: Defrost frozen vial into T-225. • Step 2, Day 5: (when 85% confluent): Split one T-225 at 3×10^6 cells per flask. • Step 3, Day 8: Splits cells to set up for the assay plates as described below.
T-Rex APOL1 HEK cells are split twice per week to keep the confluence state below 85% of the culture flask surface area. Cells can be kept until passage 25. • Cell Culture Medium • DMEM high glucose+10% FBS, +P/S, +5 μg/mL blasticidin, +1 μg/mL puromycin. • 500 mL DMEM, +55 mL FBS, +5 mL P/S, +280 μL blasicidin 10 mg/mL, +56 μL Puromycin 10 mg/mL. • Assay Media • Opti-MEM reduced serum medium from Invitrogen.
Preparation of Cell Assay Plates • Culture medium is removed from the x cm^2 T-flask by aspiration. • The cell monolayer is rinsed with PBS 1× at room temperature. PBS is removed by aspiration. • Cells are trypsinized using Trypsin. • The flasks are incubated at room temperature for 2-3 minutes. • Complete DMEM medium is then added. Cell suspension is then transferred to a 50 mL Falcon polypropylene tube. • Cells are then counted using a Biorad TC10 cell counter and the required amount of cells are centrifuged at 1200 RPM for 5 minutes. Required amount is 1.3×10^6 cells/mL APOL1 T-Rex HEK cells. • The pellet is suspended in the assay medium. • Using the MultiDrop, add 20 μL to each well (corresponds to 26000 cells total per well) of a 384-well black, transparent, flat bottom Poly-D coated plate. • Tetracycline as prepared in the following section is added to the cells before plating to induce APOL1 expression. • Plates are left at room temperature for 20 to 30 minutes before incubation at 37° C. and 5% CO2. […]

Row | IC50 | Structure (SMILES)
1 | > 1000 nM | O=C(NCC(O)CO)[C@H]1C[C@@H](c2c(-c3ccc(F)cc3)[nH]c3c(F)cc(F)cc32)C1 (stereo partly shown) [Compound 244]
2 | > 1000 nM | COCCNC(=O)[C@H]1C[C@@H](c2c(-c3ccc(F)cc3)[nH]c3c(F)cc(F)cc32)C1 [Compound 242]
3 | < 250 nM | C[C@@H](CO)NC(=O)[C@H]1C[C@H](c2c(-c3ccc(F)cc3)[nH]c3c(F)cc(F)cc32)C1 [Compound 27]
4 | > 1000 nM | O=C(NCC1COC1)[C@H]1C[C@@H](c2c(-c3ccc(F)cc3)[nH]c3c(F)cc(F)cc32)C1 [Compound 248]
5 | 250 to 1000 nM | CC1(C(=O)NCCO)CC(c2c(-c3ccc(F)cc3)[nH]c3c(F)cc(F)cc23)C1 (mixture of isomers) [Compound 283]
6 | 250 to 1000 nM | O=C(NCCO)C1CC(c2c(-c3ccc(F)cc3)[nH]c3c(F)cc(C(F)(F)F)cc23)C1 (stereo not shown) [Compound 279]
7 | < 250 nM | CC1(C(=O)NC2(CO)CC2)CC(c2c(-c3ccc(F)cc3)[nH]c3c(F)cc(F)cc23)C1 (mixture of isomers) [Compound 281]
8 | > 1000 nM | O=C(NC(CO)CO)[C@H]1C[C@@H](c2c(-c3ccc(F)cc3)[nH]c3c(F)cc(F)cc32)C1 [Compound 241]
9 | > 1000 nM | NC(=O)C(CO)NC(=O)[C@H]1C[C@@H](c2c(-c3ccc(F)cc3)[nH]c3c(F)cc(F)cc32)C1 (stereo partly shown) [Compound 259]
10 | 250 to 1000 nM | C[C@H](CO)N(C)C(=O)[C@H]1C[C@H](c2c(-c3ccc(F)cc3)[nH]c3c(F)cc(F)cc32)C1 [Compound 190]
11 | > 1000 nM | O=C1NC[C@@H](O)[C@@H]1NC(=O)[C@H]1C[C@@H](c2c(-c3ccc(F)cc3)[nH]c3c(F)cc(F)cc32)C1 [Compound 277]
12 | 250 to 1000 nM | O=C(NC1(CO)CCC1)[C@H]1C[C@@H](c2c(-c3ccc(F)cc3)[nH]c3c(F)cc(F)cc32)C1 [Compound 240]

Same assay, conditions: Table 24, Compounds 287 to 465; read-out: Thallium Assay (IC50)

Row | Structure (SMILES) | IC50
13 | O=C(NCc1cnco1)C1CC(Cc2c(-c3ccc(F)cc3)[nH]c3c(F)cc(F)cc23)C1 (stereo not shown) [Compound 337] | > 1000 nM
14 | O=C(NC1(CCO)CC1)C1CC(Cc2c(-c3ccc(F)cc3)[nH]c3c(F)cc(F)cc23)C1 (stereo not shown) [Compound 311] | > 1000 nM
15 | O=C(NCC1(O)CC1)NC[C@H]1C[C@H](c2c(-c3ccc(F)cc3)[nH]c3c(F)cc(F)cc32)C1 [Compound 399] | > 1000 nM
16 | CS(=O)(=O)CCNC(=O)C1CC(Cc2c(-c3ccc(F)cc3)[nH]c3c(F)cc(F)cc23)C1 (stereo not shown) [Compound 316] | > 1000 nM
17 | NC(=O)CNC1CC(c2c(-c3ccc(F)cc3)[nH]c3c(F)cc(F)cc23)C1 (stereo not shown) [Compound 288, 2-[[3-[5,7-difluoro-2-(4-fluorophenyl)-1H-indol-3-yl]cyclobutyl]amino]acetamide] | > 1000 nM
18 | C[C@]1(NC(=O)NC[C@H]2C[C@H](c3c(-c4ccc(F)cc4)[nH]c4c(F)cc(F)cc43)C2)C[C@@H](O)C1 [Compound 408] | > 1000 nM
19 | CN(CC1CC(c2c(-c3ccc(F)cc3)[nH]c3c(F)cc(F)cc23)C1)C(=O)NCc1cn(C)cn1 (stereo not shown) [Compound 427, 1-((3-(5,7-difluoro-2-(4-fluorophenyl)-1H-indol-3-yl)cyclobutyl)methyl)-1-methyl-3-((1-methyl-1H-imidazol-4-yl)methyl)urea] | > 1000 nM

The remaining lines, values ahead:

Row | IC50 | Structure (SMILES)
20 | > 1000 nM | O=C(NCC1(CO)COC1)NC[C@H]1C[C@H](c2c(-c3ccc(F)cc3)[nH]c3c(F)cc(F)cc32)C1 [Compound 396]
21 | > 1000 nM | CC(CO)(CO)NC(=O)NC[C@H]1C[C@H](c2c(-c3ccc(F)cc3)[nH]c3c(F)cc(F)cc32)C1 [Compound 397]
22 | > 1000 nM | CC1(NC(=O)C2CC(Cc3c(-c4ccc(F)cc4)[nH]c4c(F)cc(F)cc34)C2)CCOC1 (mixture of isomers) [Compound 334]
23 | > 1000 nM | CC1(NC(=O)NC[C@H]2C[C@H](c3c(-c4ccc(F)cc4)[nH]c4c(F)cc(F)cc43)C2)CCNC1=O (mixture of isomers) [Compound 426]
24 | > 1000 nM | O=C(NC[C@H]1C[C@H](c2c(-c3ccc(F)cc3)[nH]c3c(F)cc(F)cc32)C1)NC1CC(O)C1 (stereo partly shown) [Compound 420]
25 | 250 to 1000 nM | CNC(=O)CN[C@H]1C[C@H](c2c(-c3ccc(F)cc3)[nH]c3c(F)cc(F)cc32)C1 [Compound 291]
26 | > 1000 nM | CC(C)(O)CNC(=O)NC[C@H]1C[C@H](c2c(-c3ccc(F)cc3)[nH]c3c(F)cc(F)cc32)C1 [Compound 423]
27 | > 1000 nM | CC[C@@H](CO)NC(=O)NC[C@H]1C[C@H](c2c(-c3ccc(F)cc3)[nH]c3c(F)cc(F)cc32)C1 [Compound 421]
28 | > 1000 nM | O=C(NCC1CCNC1=O)NC[C@H]1C[C@H](c2c(-c3ccc(F)cc3)[nH]c3c(F)cc(F)cc32)C1 (stereo partly shown) [Compound 417]
29 | > 1000 nM | COC[C@H](C)NC(=O)O[C@H]1C[C@H](c2c(-c3ccc(F)cc3)[nH]c3c(F)cc(F)cc32)C1 [Compound 364]
30 | > 1000 nM | O=C(NCC1CCOCC1)C1CC(Cc2c(-c3ccc(F)cc3)[nH]c3c(F)cc(F)cc23)C1 (stereo not shown) [Compound 326]
31 | > 1000 nM | CC1(O)CC(NC(=O)O[C@H]2C[C@H](c3c(-c4ccc(F)cc4)[nH]c4c(F)cc(F)cc43)C2)C1 (stereo partly shown) [Compound 361]
32 | > 1000 nM | C[C@@H](O)CNC(=O)C1CC(Cc2c(-c3ccc(F)cc3)[nH]c3c(F)cc(F)cc23)C1 (stereo partly shown) [Compound 307]
33 | > 1000 nM | Cc1cnc(CNC(=O)O[C@H]2C[C@H](c3c(-c4ccc(F)cc4)[nH]c4c(F)cc(F)cc43)C2)o1 [Compound 374]
34 | < 250 nM | O=C(CNC[C@H]1C[C@H](c2c(-c3ccc(F)cc3)[nH]c3c(F)cc(F)cc32)C1)NCO [Compound 448]
35 | > 1000 nM | O=C(NC1CCOC1)O[C@H]1C[C@H](c2c(-c3ccc(F)cc3)[nH]c3c(F)cc(F)cc32)C1 (stereo partly shown) [Compound 382]
36 | > 1000 nM | C[C@@H](O)CNC(=O)O[C@H]1C[C@H](c2c(-c3ccc(F)cc3)[nH]c3c(F)cc(F)cc32)C1 [Compound 369]
37 | > 1000 nM | N#CC(CO)NC(=O)C1CC(Cc2c(-c3ccc(F)cc3)[nH]c3c(F)cc(F)cc23)C1 (stereo not shown) [Compound 303]
38 | > 1000 nM | CC1(NC(=O)C2CC(Cc3c(-c4ccc(F)cc4)[nH]c4c(F)cc(F)cc34)C2)CCNC1=O (stereo not shown) [Compound 308]
39 | > 1000 nM | COCC1(CNC(=O)C2CC(Cc3c(-c4ccc(F)cc4)[nH]c4c(F)cc(F)cc34)C2)CC1 (stereo not shown) [Compound 319]
40 | > 1000 nM | CCC(O)CNC(=O)O[C@H]1C[C@H](c2c(-c3ccc(F)cc3)[nH]c3c(F)cc(F)cc32)C1 (stereo partly shown) [Compound 388]
41 | > 1000 nM | Cc1cc(CNC(=O)C2CC(Cc3c(-c4ccc(F)cc4)[nH]c4c(F)cc(F)cc34)C2)nn1C (stereo not shown) [Compound 340]
42 | 250 to 1000 nM | NC(=O)CNC(=O)O[C@H]1C[C@H](c2c(-c3ccc(F)cc3)[nH]c3c(F)cc(F)cc32)C1 [Compound 355]
43 | 250 to 1000 nM | COCC(C)NC(=O)O[C@H]1C[C@H](c2c(-c3ccc(F)cc3)[nH]c3c(F)cc(F)cc32)C1 (mixture of isomers) [Compound 360]
